# ChEMBL document CHEMBL1133880 (Bioorg Med Chem Lett, 2001)
# Residues, ends and D or L forms follow the SMILES beside them. *: point of attachment. Octanoyl = CCCCCCCC(=O)*
# Experiments:
# [1] = biological target: T1, Growth hormone secretagogue receptor type 1 (Homo sapiens, UniProt Q92847); test: Binding affinity towards human Growth hormone secretagogue receptor type 1 using competitive binding assay with radiolabeled [35S]-MK-0677 expressed as IC50
# [2] = biological target: T1, Growth hormone secretagogue receptor type 1; test: Functional potency measured as intracellular calcium elevation in Hek-293 cells expressing hGHSR1a; assay type: cell-based, HEK293
# T1 sequence (Q92847 whole entry): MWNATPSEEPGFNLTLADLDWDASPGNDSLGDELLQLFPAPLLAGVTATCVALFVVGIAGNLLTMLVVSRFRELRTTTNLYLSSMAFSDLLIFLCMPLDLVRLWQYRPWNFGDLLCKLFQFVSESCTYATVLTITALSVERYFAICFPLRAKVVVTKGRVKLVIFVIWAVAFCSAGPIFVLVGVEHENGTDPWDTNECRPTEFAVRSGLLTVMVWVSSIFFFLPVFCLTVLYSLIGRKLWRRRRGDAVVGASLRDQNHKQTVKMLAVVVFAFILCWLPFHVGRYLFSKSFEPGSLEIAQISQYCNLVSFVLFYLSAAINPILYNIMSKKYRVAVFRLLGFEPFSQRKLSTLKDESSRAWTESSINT
SMILES,IC50 [1] [nM],EC50 [2] [nM]
CCCCCCCC(=O)OC[C@@H](NC(=O)C(C)(C)N)C(=O)N1CCC2(CC1)CN(S(C)(=O)=O)c1ccccc12,8.12,19.6
CCCCCCCC(=O)OC[C@H](NC(=O)[C@H](CO)NC(=O)CN)C(=O)N1CCC2(CC1)CN(S(C)(=O)=O)c1ccccc12,2670,448
CCCCCCCC(=O)OC[C@H](NC(=O)C(C)(C)N)C(=O)N1CCC2(CC1)CN(S(C)(=O)=O)c1ccccc12,590,378
CCCCCCCC(=O)OC[C@H](NC(=O)CN)C(=O)N[C@@H](CO)C(=O)N[C@@H](Cc1ccccc1)C(=O)O (H-GS(Octanoyl)SF-OH),889,72

# Second part, the molecule after the results:
IC50 [1] [nM],EC50 [2] [nM],SMILES
829,432,CCCCCCCC(=O)OC[C@@H](NC(=O)[C@@H](N)CO)C(=O)N1CCC2(CC1)CN(S(C)(=O)=O)c1ccccc12
209,69.2,CS(=O)(=O)N1CC2(CCN(C(=O)[C@@H](COCc3ccccc3)NC(=O)[C@@H](N)CO)CC2)c2ccccc21
36.2,7.95,CS(=O)(=O)N1CC2(CCN(C(=O)[C@@H](COCc3ccccc3)NC(=O)[C@H](CO)NC(=O)CN)CC2)c2ccccc21
128,68.2,CCCCCCCC(=O)OC[C@@H](NC(=O)[C@H](CO)NC(=O)CN)C(=O)N1CCC2(CC1)CN(S(C)(=O)=O)c1ccccc12
